Reference: patent US8975280B2, “Deoxynojirimycin and D-arabinitol analogs and methods of using” (The Chancellor, Masters and Scholars of The University of …, priority 2006, dated 2015)

Biological target: T1, α-glucosidase I (Rattus norvegicus, UniProt O88941)
T1 construct: Purified α-glucosidase I and II were purified from rat liver by known methods; from tissue; host or cells: rat liver
T1 sequence (O88941 1-834): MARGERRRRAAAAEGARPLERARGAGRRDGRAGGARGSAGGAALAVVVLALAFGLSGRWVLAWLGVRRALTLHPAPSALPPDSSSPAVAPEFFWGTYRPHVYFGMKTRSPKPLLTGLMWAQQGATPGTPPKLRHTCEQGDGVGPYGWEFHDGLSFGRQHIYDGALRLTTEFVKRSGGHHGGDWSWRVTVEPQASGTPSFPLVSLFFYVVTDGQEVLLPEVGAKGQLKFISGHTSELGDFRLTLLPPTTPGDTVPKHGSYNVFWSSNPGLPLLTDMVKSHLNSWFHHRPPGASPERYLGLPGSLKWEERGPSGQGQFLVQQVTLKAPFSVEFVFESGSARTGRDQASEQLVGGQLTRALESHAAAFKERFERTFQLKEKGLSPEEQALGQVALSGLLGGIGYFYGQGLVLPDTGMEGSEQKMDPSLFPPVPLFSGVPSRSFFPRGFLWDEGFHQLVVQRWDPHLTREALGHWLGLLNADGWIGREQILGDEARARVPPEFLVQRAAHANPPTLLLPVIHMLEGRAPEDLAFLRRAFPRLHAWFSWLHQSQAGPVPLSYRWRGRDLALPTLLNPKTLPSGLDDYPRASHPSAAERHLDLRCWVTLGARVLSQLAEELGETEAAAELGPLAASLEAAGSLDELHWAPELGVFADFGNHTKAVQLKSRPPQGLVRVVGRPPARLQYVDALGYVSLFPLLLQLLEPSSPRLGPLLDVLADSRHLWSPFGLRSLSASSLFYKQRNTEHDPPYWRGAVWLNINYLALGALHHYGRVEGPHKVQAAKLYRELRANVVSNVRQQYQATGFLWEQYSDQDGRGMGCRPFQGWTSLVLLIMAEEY
Experiment: In vitro inhibition of purified α-glucosidase I, 2-AA-labeled FOS substrates, HPLC
Format: biochemical
Method: All chromatography was performed at 30° C. The first solvent, solvent A, was acetonitrile and the second solvent, solvent B, was Milli-Q water. […] Samples (<50 μl) were injected in Milli-Q water/acetonitrile (3/7, v/v). All chromatography was controlled, including data collection and processing, using Waters Empower software. Glucose units were determined, following comparison with a 2-AA-labeled glucose oligomer ladder (derived from a partial hydrolysate of dextran) external standard using Peak Time software (developed in-house).
Purified α-glucosidase I and II were purified from rat liver by known methods. […] 2-AA-labeled FOS were isolated and purified as substrates for either α-glucosidase I or II. Fluorescently-labeled substrates Glc1Man5GlcNAc1 (G1M5N), Glc2Man5GlcNAc1 (G2M5N), Glc3Man5GlcNAc1 (G3M5N) and Glc3Man9GlcNAc, (G3M9N2) were added to separate 1.5 ml centrifuge tubes with varying concentrations of imino sugar and dried under vacuum. […] Similarly, α-glucosidase II was incubated for 2 hours with G2M5N and 20 minutes with G1M5N. […] The reactions were stopped by the addition of 30 μl acetonitrile.

[1] = physiologically relevant substrates

## [N-]=[N+]=Nc1ccc(NCCCCCCN2C[C@H](O)[C@@H](O)[C@H](O)[C@H]2CO)c([N+](=O)[O-])c1 [NAP-DNJ, N—(N′-{4′azido-2′-nitrophenyl)-6-aminohexyl)-deoxynojirimycin]
Heptamannose substrates
  more potent in inhibiting glucosidase I than glucosidase II (a): over 300 times
  more potent in inhibiting glucosidase I than glucosidase II (b): more than 500 times
Pentamannose substrate
  inhibition of α-glucosidase I improved in comparison to NB-DNJ: 40 fold
Pentamannose substrates
  inhibition better for α-glucosidase I than α-glucosidase II (a): 20 times
  inhibition better for α-glucosidase I than α-glucosidase II (b): 50 times
[1]
  better at inhibiting glucosidase I than glucosidase II (a) and (b) activity: 300-500 times
  better than NB-DNJ in inhibiting all triglucosylated structures: 25-50 times
α-Glucosidase I Glc3Man5GlcNAc1 IC50, pentamannose substrate Glc3Man5GlcNAc1
  IC50: 17 ± 1 nM
α-Glucosidase I Glc3Man7GlcNAc1 IC50, heptamannose substrate Glc3Man7GlcNAc1
  IC50: 37 ± 1 nM
α-Glucosidase I Glc3Man9GlcNAc1 IC50, nonamannose substrate Glc3Man9GlcNAc1
  IC50: 22 ± 2 nM
